Target: Cyclin-A2/Cyclin-dependent kinase 2 (Homo sapiens, UniProt P24941)
Assay: CDK Inhibition Assay
Settings: pH 7.5; 22 °C
Experimental: In vitro kinase assay using purified CDK2/Cyclin A was incubated at room temperature with substrate, and test compounds in the presence of 100 uM ATP/ [gamma-33P] ATP. Assays were performed in 96-well polypropylene plates. 33P incorporation into substrate was measured using a scintillation counter.

NS(=O)(=O)c1ccc(-c2ccc(/C=c3\sc4nc5ccccc5n4c3=O)o2)cc1 [4-(5-{[(4Z)-3-oxo-5-thia-2,7-diazatricyclo[6.4.0.0^{2,6}]dodeca-1(12),6,8,10-tetraen-4-ylidene]methyl}furan-2-yl)benzene-1-sulfonamide]
IC50: 760 nM

Reference: BindingDB's records for doi:10.1016/j.bmcl.2007.04.110 (Vernalis (R&D), 2007)
